Measured values: PubChem BioAssay AID2060500 (Molecular Pharmacology Branch, DTP, NCI, 2025)

Tested on: 596521-263-R-J1-PDC complex spheroids, viability % of control
Experiment: Anticancer human tumor 596521-263-R-J1-PDC patient-derived soft tissue sarcoma cell line growth inhibition [GQUAD]
Conditions: for IC50: curve of first compound; for viability, T/C: stronger effect = lower value
Procedure, shortened: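 Viability of tumor cells grown as complex spheroids with endothelial and stromal cells, exposed to drug combinations. Top concentration at or near clinical Cmax (else 10 microM), diluted in half-log increments.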

[1] = second compound 0.0316 µM, first compound 0.000999 µM
[2] = second compound 0.0316 µM, first compound 0.00316 µM
[3] = second compound 0.0316 µM, first compound 0.00999 µM
[4] = second compound 0.0316 µM, first compound 0.0316 µM
[5] = second compound 0.0316 µM, first compound 0.0999 µM
[6] = second compound 0.0316 µM, first compound 0.316 µM
[7] = second compound 0.1 µM, first compound 0.000999 µM
[8] = second compound 0.1 µM, first compound 0.00316 µM
[9] = second compound 0.1 µM, first compound 0.00999 µM
[10] = second compound 0.1 µM, first compound 0.0316 µM
[11] = second compound 0.1 µM, first compound 0.0999 µM
[12] = second compound 0.1 µM, first compound 0.316 µM
[13] = second compound 0.316 µM, first compound 0.000999 µM
[14] = second compound 0.316 µM, first compound 0.00316 µM
[15] = second compound 0.316 µM, first compound 0.00999 µM
[16] = second compound 0.316 µM, first compound 0.0316 µM
[17] = second compound 0.316 µM, first compound 0.0999 µM
[18] = second compound 0.316 µM, first compound 0.316 µM
[19] = second compound 1 µM, first compound 0.000999 µM
[20] = second compound 1 µM, first compound 0.00316 µM
[21] = second compound 1 µM, first compound 0.00999 µM
[22] = second compound 1 µM, first compound 0.0316 µM
[23] = second compound 1 µM, first compound 0.0999 µM
[24] = second compound 1 µM, first compound 0.316 µM
[25] = second compound 3.16 µM, first compound 0.000999 µM
[26] = second compound 3.16 µM, first compound 0.00316 µM
[27] = second compound 3.16 µM, first compound 0.00999 µM
[28] = second compound 3.16 µM, first compound 0.0316 µM
[29] = second compound 3.16 µM, first compound 0.0999 µM
[30] = second compound 3.16 µM, first compound 0.316 µM
[31] = second compound 10 µM, first compound 0.000999 µM
[32] = second compound 10 µM, first compound 0.00316 µM
[33] = second compound 10 µM, first compound 0.00999 µM
[34] = second compound 10 µM, first compound 0.0316 µM
[35] = second compound 10 µM, first compound 0.0999 µM
[36] = second compound 10 µM, first compound 0.316 µM
[37] = second compound 0.0316 µM, first compound 0.1 µM
[38] = second compound 0.0316 µM, first compound 1 µM
[39] = second compound 0.0316 µM, first compound 3.16 µM
[40] = second compound 0.0316 µM, first compound 10 µM
[41] = second compound 0.1 µM, first compound 0.1 µM
[42] = second compound 0.1 µM, first compound 1 µM
[43] = second compound 0.1 µM, first compound 3.16 µM
[44] = second compound 0.1 µM, first compound 10 µM
[45] = second compound 0.316 µM, first compound 0.1 µM
[46] = second compound 0.316 µM, first compound 1 µM
[47] = second compound 0.316 µM, first compound 3.16 µM
[48] = second compound 0.316 µM, first compound 10 µM
[49] = second compound 1 µM, first compound 0.1 µM
[50] = second compound 1 µM, first compound 1 µM
[51] = second compound 1 µM, first compound 3.16 µM
[52] = second compound 1 µM, first compound 10 µM
[53] = second compound 3.16 µM, first compound 0.1 µM
[54] = second compound 3.16 µM, first compound 1 µM
[55] = second compound 3.16 µM, first compound 3.16 µM
[56] = second compound 3.16 µM, first compound 10 µM
[57] = second compound 10 µM, first compound 0.1 µM
[58] = second compound 10 µM, first compound 1 µM
[59] = second compound 10 µM, first compound 3.16 µM
[60] = second compound 10 µM, first compound 10 µM
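Note: spheroids exposed to drugs for 7 days before viability reading.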
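Throughout, for viability, T/C: 100% = DMSO vehicle control viability.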

Cc1[nH]c2ccccc2c1CCNCc1ccc(/C=C/C(=O)NO)cc1 + Cc1cnc(CNC(=O)c2c(=O)c3ccc(N4CCCN(C)CC4)nc3n3c2sc2ccccc23)cn1
IC50 (second compound 0.0316 µM): 44.4 nM
IC50 (second compound 0.1 µM): 57.5 nM
IC50 (second compound 0.316 µM): 49.3 nM
IC50 (second compound 1 µM): 39.4 nM
IC50 (second compound 3.16 µM): 18.5 nM
IC50 (second compound 10 µM): < 0.999 nM
viability, T/C [1]: 103%
viability, T/C [2]: 88.9%
viability, T/C [3]: 83.1%
viability, T/C [4]: 58.4%
viability, T/C [5]: 29.2%
viability, T/C [6]: 2%
viability, T/C [7]: 99.9%
viability, T/C [8]: 81.8%
viability, T/C [9]: 79.7%
viability, T/C [10]: 61.8%
viability, T/C [11]: 40.6%
viability, T/C [12]: 2.65%
viability, T/C [13]: 83.2%
viability, T/C [14]: 73.9%
viability, T/C [15]: 67.8%
viability, T/C [16]: 63.3%
viability, T/C [17]: 34.3%
viability, T/C [18]: 2.74%
viability, T/C [19]: 65.2%
viability, T/C [20]: 67.5%
viability, T/C [21]: 67.8%
viability, T/C [22]: 48%
viability, T/C [23]: 36.8%
viability, T/C [24]: 0.29%
viability, T/C [25]: 49.9%
viability, T/C [26]: 54.4%
viability, T/C [27]: 54%
viability, T/C [28]: 47.4%
viability, T/C [29]: 30.5%
viability, T/C [30]: 0.21%
viability, T/C [31]: 41.9%
viability, T/C [32]: 19.3%
viability, T/C [33]: 43.1%
viability, T/C [34]: 37.8%
viability, T/C [35]: 0.34%
viability, T/C [36]: 0.24%

O=C(c1cc(Cc2n[nH]c(=O)c3ccccc23)ccc1F)N1CCN(C(=O)C2CC2)CC1 + Cc1[nH]c2ccc(F)cc2c1-c1nc2c3cccnc3c3ncccc3c2[nH]1
IC50 (second compound 0.0316 µM): > 10000 nM
IC50 (second compound 0.1 µM): > 10000 nM
IC50 (second compound 0.316 µM): > 10000 nM
IC50 (second compound 1 µM): > 10000 nM
IC50 (second compound 3.16 µM): > 10000 nM
IC50 (second compound 10 µM): > 10000 nM
viability, T/C [4]: 97.8%
viability, T/C [37]: 97.8%
viability, T/C [6]: 98.6%
viability, T/C [38]: 85.8%
viability, T/C [39]: 89.8%
viability, T/C [40]: 69.8%
viability, T/C [10]: 91.6%
viability, T/C [41]: 83.3%
viability, T/C [12]: 88.3%
viability, T/C [42]: 94.7%
viability, T/C [43]: 76.8%
viability, T/C [44]: 66.2%
viability, T/C [16]: 95%
viability, T/C [45]: 105%
viability, T/C [18]: 91.8%
viability, T/C [46]: 104%
viability, T/C [47]: 78.5%
viability, T/C [48]: 66.3%
viability, T/C [22]: 104%
viability, T/C [49]: 87.9%
viability, T/C [24]: 94.7%
viability, T/C [50]: 85.2%
viability, T/C [51]: 91.4%
viability, T/C [52]: 65.5%
viability, T/C [28]: 94%
viability, T/C [53]: 83.3%
viability, T/C [30]: 88.4%
viability, T/C [54]: 80.8%
viability, T/C [55]: 75.4%
viability, T/C [56]: 57.2%
viability, T/C [34]: 77.4%
viability, T/C [57]: 73.7%
viability, T/C [36]: 75.8%
viability, T/C [58]: 66.2%
viability, T/C [59]: 72.6%
viability, T/C [60]: 58.5%

CC1COCCN1c1cc(C2(S(C)(=N)=O)CC2)nc(-c2ccnc3[nH]ccc23)n1 (stereo not drawn) + Cc1[nH]c2ccc(F)cc2c1-c1nc2c3cccnc3c3ncccc3c2[nH]1
IC50 (second compound 0.0316 µM): > 10000 nM
IC50 (second compound 0.1 µM): 8240 nM
IC50 (second compound 0.316 µM): 7650 nM
IC50 (second compound 1 µM): > 10000 nM
IC50 (second compound 3.16 µM): 6020 nM
IC50 (second compound 10 µM): 4760 nM
viability, T/C [4]: 94.5%
viability, T/C [37]: 92.9%
viability, T/C [6]: 92.1%
viability, T/C [38]: 79.2%
viability, T/C [39]: 64.5%
viability, T/C [40]: 50.9%
viability, T/C [10]: 104%
viability, T/C [41]: 95.5%
viability, T/C [12]: 90.8%
viability, T/C [42]: 79.6%
viability, T/C [43]: 63.1%
viability, T/C [44]: 47.2%
viability, T/C [16]: 100%
viability, T/C [45]: 111%
viability, T/C [18]: 98.5%
viability, T/C [46]: 84.5%
viability, T/C [47]: 62.6%
viability, T/C [48]: 46.1%
viability, T/C [22]: 94.5%
viability, T/C [49]: 92.8%
viability, T/C [24]: 85.5%
viability, T/C [50]: 86.1%
viability, T/C [51]: 67.9%
viability, T/C [52]: 51.4%
viability, T/C [28]: 80.3%
viability, T/C [53]: 89%
viability, T/C [30]: 87.2%
viability, T/C [54]: 65.6%
viability, T/C [55]: 62.6%
viability, T/C [56]: 42.1%
viability, T/C [34]: 80.5%
viability, T/C [57]: 72.6%
viability, T/C [36]: 81%
viability, T/C [58]: 61.7%
viability, T/C [59]: 55.3%
viability, T/C [60]: 43.9%

Cn1ncnc1[C@H]1c2n[nH]c(=O)c3cc(F)cc(c23)N[C@@H]1c1ccc(F)cc1 + CN(C)c1ccc(Nc2c3ccc(NC(=O)CCN4CCCC4)cc3nc3cc(NC(=O)CCN4CCCC4)ccc23)cc1
IC50 (second compound 0.0316 µM): > 316 nM
IC50 (second compound 0.1 µM): > 316 nM
IC50 (second compound 0.316 µM): > 316 nM
IC50 (second compound 1 µM): > 316 nM
IC50 (second compound 3.16 µM): > 316 nM
IC50 (second compound 10 µM): > 316 nM
viability, T/C [1]: 106%
viability, T/C [2]: 89.4%
viability, T/C [3]: 90.6%
viability, T/C [4]: 84.8%
viability, T/C [5]: 99.6%
viability, T/C [6]: 80.5%
viability, T/C [7]: 98.4%
viability, T/C [8]: 92.1%
viability, T/C [9]: 96.6%
viability, T/C [10]: 94.7%
viability, T/C [11]: 86.6%
viability, T/C [12]: 93.5%
viability, T/C [13]: 104%
viability, T/C [14]: 97.9%
viability, T/C [15]: 102%
viability, T/C [16]: 94.6%
viability, T/C [17]: 83.4%
viability, T/C [18]: 80%
viability, T/C [19]: 92.4%
viability, T/C [20]: 89.5%
viability, T/C [21]: 99.8%
viability, T/C [22]: 85.1%
viability, T/C [23]: 95%
viability, T/C [24]: 76.1%
viability, T/C [25]: 94%
viability, T/C [26]: 97%
viability, T/C [27]: 98.4%
viability, T/C [28]: 85.5%
viability, T/C [29]: 92.6%
viability, T/C [30]: 80.8%
viability, T/C [31]: 70.1%
viability, T/C [32]: 58.9%
viability, T/C [33]: 67.3%
viability, T/C [34]: 64.9%
viability, T/C [35]: 61.5%
viability, T/C [36]: 60.2%
